We go through 3 molecules from US5162373A, “Methods and improved formulations for the determination and treatment of malignant disease in patients” (priority 1989, dated 1992).

Data set [1] concerns intestinal epithelium / gut mucosa. Conditions: cited from earlier work.
For data set [2] the test system is unchanged. As to the kind of experiment: Trophic/protective effect on intestinal epithelium, other studies. In kind it is in vivo. Particulars: doses as high as 20 g/L.
Data set [3] can be described thus: Toxicity of continuous i.v. DFMO infusion in rats (FIG. 3). In kind it is in vivo, rat. Conditions: 12 days; 500-2000 mg/kg/day. From the text:
FIG. 3. […] Bars indicate standard deviation.
In the above described rat model, a continuous infusion of DFMO was given through a central venous catheter.

For data set [4], the system named is platelets. Particulars: rat, in vivo.
The test system of data set [5] is tumor putrescine; MCA sarcoma.
On the set-up of data set [6]: species or system human (patients with advanced colorectal carcinoma). Particulars: human, in vivo. An excerpt: FIG. 4. Platelet counts plotted against days of continuous i.v. DFMO infusion in patients with advanced colorectal carcinoma. […] The paired points are connected by a straight line.
There was no incidence of nausea, vomiting or diarrhea.

With `NCCCCN` [putrescine], in data set [1] (about 50 micromole/100 gram body weight), the “colonic DNA and protein content” value was “increases in colonic DNA and protein content”. Also, the “DNA and RNA content and protein in ileum” value in data set [1] (putrescine about 1 micromole) was “increased DNA and RNA content and protein”. Besides, the mucosal proliferation result in data set [1] (putrescine: intraluminal infusion) is given as “stimulation of mucosal proliferation”.
In the case of `NC(=O)CC[C@H](N)C(=O)O` [glutamine, L-glutamine], the “trophic effect on intestinal epithelium” value in data set [2] is reported as “trophic effect on intestinal epithelium, especially the ileum”. The “gut epithelium, glutamine added to TPN” value in data set [1] (10-20 g/L) is listed as “restores gut epithelium”. Also, the “transmucosal migration of bacteria into mesenteric lymph nodes” value in data set [1] (compared with glutamine deficient formulas) is “present transmucosal migration of bacteria into mesenteric lymph nodes”. For the same molecule, the “protection of gut mucosa” value in data set [1] (oral, rats receiving toxic doses of 5FU or methotrexate) was “protected the gut mucosa”.
For the molecule `NCCCC(N)(C(=O)O)C(F)F` (stereo not shown) [DFMO, Difluoromethylornithine], the clinical toxicity result in data set [3] is reported as “no significant clinical toxicity”. The “platelet suppression, in words” value in data set [4] is “significant decrease in platelet count as compared with the saline treatment”. Also, the “decrease in tumor putrescine levels” value in data set [5] (DFMO infusion) was 90%. For the same molecule, in data set [5] (rat, in vivo), the “growth of MCA sarcoma” value is reported as “reduces the growth rate of an MCA sarcoma but does not produce tumor regression” and the peripheral platelet counts result was “without suppressing peripheral platelet counts”. In addition, in data set [6], the White cell count entry is given as “not affected by either dose”; the decreased hearing acuity entry is “two patients who experienced decreased hearing acuity”; the hematocrit entry is “Significant suppression of the hematocrit”; the “nausea, vomiting or diarrhea” value was “no incidence”. Also, in data set [6], the platelet suppression result is “significant at both doses”; the “platelet suppression, 8 g vs 6 g dose” value is given as “significantly greater platelet suppression at the 8 g dose as compared with the 6 g dose”; the “resolution of toxicities after discontinuing infusion” value is “resolved spontaneously within two weeks”.
